Experimental data published in patent US10463666B2, “Pharmaceutical composition comprising progestogens and/or estrogens and 5-methyl-(6S)-tetrahydrofolate” (MERCK & CIE, priority 2005, dated 2019).

Columns and labels:
[1] = compatibility investigation of binary mixtures with vitamin B12 by DSC; format: physicochemical; set-up: key: ++: good compatibility expected below the stated temperature; +: compatibility below the stated temperature; ++/−: indifferent compatibility, possibly good compatibility below the stated temperature; +/−−: indifferent compatibility, appears to be compatible below the stated temperature; −: (strong) interaction, incompatible; −−−: (strong) interaction, incompatible; conditions: binary mixture with vitamin B12, DSC, various gases and temperatures
Method: Both vitamin B12 and 5-methyl-(6S)-tetrahydrofolate are unstable in the presence of atmospheric oxygen and humidity. […] Measurements of the incompatibilities between the intended formulation ingredients were carried out by a thermoanalytical method (DSC, differential scanning calorimetry). This allows incompatibilities to be recognized through low enthalpies of fusion and melting temperatures. These are caused for example by a reduced proportion of crystalline substance and the increase in impurities. In the determination, binary mixtures of excipients or active ingredients in each case with vitamin B12 were investigated, and the compatibility was examined under the influence of various gases and temperatures. […]

[2] = cited from earlier work

| Compatibility [1] | Compound | reduction of incidence of neural tube defects ([2]; folic acid fortification of food products, Canada and Chile) | reduction of neural tube defects ([2]; intake at the right time around conception) |
| --- | --- | --- | --- |
| + | C[C@]12CCC(=O)C=C1[C@@H]1C[C@@H]1[C@H]1[C@@H]3[C@@H]4C[C@@H]4[C@@]4(CCC(=O)O4)[C@@]3(C)CC[C@@H]12 [Drospirenone] |  |  |
| + | OC[C@H]1O[C@@H](O[C@H]2[C@H](O)[C@@H](O)C(O)O[C@@H]2CO)[C@H](O)[C@@H](O)[C@H]1O (some centres unmarked) [Lactose] |  |  |
|  | Nc1nc2ncc(CNc3ccc(C(=O)N[C@@H](CCC(=O)O)C(=O)O)cc3)nc2c(=O)[nH]1 [folic acid] | more than 50% | 50-70% |

| Compound | Compatibility [1] | reduction of incidence of neural tube defects ([2]; folic acid fortification of food products, Canada and Chile) | reduction of neural tube defects ([2]; intake at the right time around conception) |
| --- | --- | --- | --- |
| Magnesium stearate | ++/− |  |  |
